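Interpolation was linear, between the two tested concentrations surrounding the appropriate level; five concentrations were tested over 48 hours in 96-well plates. At the GI50, growth is halved.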 Active and inactive are the calls of the source. No stated cut-off is given here; in the data, active = GI50 up to about 1.1 µM and inactive = higher.
Experiments:
Assay in all cases: DTP human tumour cell line panel, 48 h
786-0 = tested on: 786-0
BT-549 = tested on: BT-549
CAKI-1 = tested on: CAKI-1
COLO 205 = tested on: COLO 205
HCT-15 = tested on: HCT-15
HOP-62 = tested on: HOP-62
IGROV-1 = tested on: IGROV-1
K562 = tested on: K562
MDA-N = tested on: MDA-N
Malme-3M = tested on: Malme-3M
NCI/ADR-RES = tested on: NCI/ADR-RES
OVCAR-8 = tested on: OVCAR-8
SF-295 = tested on: SF-295
SK-MEL-2 = tested on: SK-MEL-2
SN12C = tested on: SN12C
SNB-19 = tested on: SNB-19
SW-620 = tested on: SW-620
U-251 = tested on: U-251
UACC-62 = tested on: UACC-62

Compound | GI50 (786-0) | GI50 (BT-549) | GI50 (CAKI-1) | GI50 (COLO 205) | GI50 (HCT-15) [µM] | GI50 (HOP-62) | GI50 (IGROV-1) | GI50 (K562) | GI50 (MDA-N) | GI50 (Malme-3M) | GI50 (NCI/ADR-RES) | GI50 (OVCAR-8) | GI50 (SF-295) | GI50 (SK-MEL-2) | GI50 (SN12C) | GI50 (SNB-19) | GI50 (SW-620) | GI50 (U-251) | GI50 (UACC-62)
COc1cc(OC)cc(-c2nc(O)c3ccccc3n2)c1 | 25.4 µM (inactive) | > 100 µM (inactive) | > 100 µM (inactive) | > 100 µM (inactive) | > 100 | 38.9 µM (inactive) | 93.1 µM (inactive) | > 100 µM (inactive) | > 100 µM (inactive) | > 100 µM (inactive) | 40.7 µM (inactive) | 24.6 µM (inactive) | 29 µM (inactive) | > 100 µM (inactive) | > 100 µM (inactive) | 49 µM (inactive) | > 100 µM (inactive) | 39.3 µM (inactive) | > 100 µM (inactive)
O=C(O)CCCSc1nc2ccccc2s1 | > 100 µM (inactive) | > 100 µM (inactive) | > 100 µM (inactive) | > 100 µM (inactive) | > 100 | > 100 µM (inactive) | > 100 µM (inactive) | > 100 µM (inactive) | > 100 µM (inactive) | > 100 µM (inactive) | > 100 µM (inactive) | > 100 µM (inactive) | > 100 µM (inactive) | > 100 µM (inactive) | > 100 µM (inactive) | > 100 µM (inactive) | > 100 µM (inactive) | > 100 µM (inactive) | > 100 µM (inactive)
CC(=O)c1c(C)[n+]([O-])c2cc(Cl)c(Cl)cc2[n+]1[O-] | 27.5 µM (inactive) | 15.6 µM (inactive) | 18.7 µM (inactive) | 15.7 µM (inactive) | 12.2 | 23.1 µM (inactive) | 4.98 µM (inactive) | 19.4 µM (inactive) | 22.6 µM (inactive) | 6.58 µM (inactive) | 16.7 µM (inactive) | 14.2 µM (inactive) | 26.5 µM (inactive) | 27.6 µM (inactive) | 20.2 µM (inactive) | 30.8 µM (inactive) | 17.7 µM (inactive) | 21.8 µM (inactive) | 18.4 µM (inactive)
CC(C)c1ccc2c(c1)/C(=C1/Nc3ccccc3/C1=N/O)C(=O)N2 | 4.85 µM (inactive) | 7.13 µM (inactive) | 4.29 µM (inactive) | 5.22 µM (inactive) | 3.98 | 10.7 µM (inactive) | 8.73 µM (inactive) | 4.07 µM (inactive) | 6.73 µM (inactive) | 3.72 µM (inactive) | 4.38 µM (inactive) | 2.79 µM (inactive) | 2.13 µM (inactive) | 3.9 µM (inactive) | 5.22 µM (inactive) | 16.4 µM (inactive) | 5.11 µM (inactive) | 7.23 µM (inactive) | 8.57 µM (inactive)
O=C(/C=C(\S/C=C(/c1ccccc1)N1CCn2c(C(=O)c3ccccc3)c(C(=O)c3ccccc3)c(C(=O)c3ccccc3)c21)C(=O)c1ccccc1)c1ccccc1 | > 10 µM (inactive) | > 10 µM (inactive) | > 10 µM (inactive) | > 10 µM (inactive) | > 10 | > 10 µM (inactive) | > 10 µM (inactive) | > 10 µM (inactive) | > 10 µM (inactive) | > 10 µM (inactive) | > 10 µM (inactive) | > 10 µM (inactive) | > 10 µM (inactive) | > 10 µM (inactive) | > 10 µM (inactive) | > 10 µM (inactive) | > 10 µM (inactive) | > 10 µM (inactive) | > 10 µM (inactive)
Cc1cccc2c(N)c3cccc(C(=O)NCC[N+](C)(C)[O-])c3nc12 | 2.46 µM (inactive) | 15.2 µM (inactive) | 3.42 µM (inactive) | 9.57 µM (inactive) | 11.3 | 3.61 µM (inactive) | 8.39 µM (inactive) | 3.13 µM (inactive) | 14.2 µM (inactive) | 12.7 µM (inactive) | 6.21 µM (inactive) | 8.61 µM (inactive) | 6.76 µM (inactive) | 67.5 µM (inactive) | 3.64 µM (inactive) | 7.87 µM (inactive) | 5.53 µM (inactive) | 4 µM (inactive) | 8.99 µM (inactive)
O=C1OC(CN2CCN(c3ccccc3)CC2)CN1C(=S)Nc1ccccc1 (stereo not drawn) | > 100 µM (inactive) | > 100 µM (inactive) | > 100 µM (inactive) | > 100 µM (inactive) | > 100 | > 100 µM (inactive) | > 100 µM (inactive) | 61.4 µM (inactive) | > 100 µM (inactive) | > 100 µM (inactive) | > 100 µM (inactive) | > 100 µM (inactive) | > 100 µM (inactive) | 31.8 µM (inactive) | > 100 µM (inactive) | > 100 µM (inactive) | > 100 µM (inactive) | > 100 µM (inactive) | > 100 µM (inactive)

Reference: ChEMBL document CHEMBL1201862, “PubChem BioAssay data set” (2004)
